The text below walks through data of patent US12065424B1, “6′(4-methoxyphenyl)-2′-alkoxy-3,4′-bipyridine-3′-carbonitrile as antimicrobial compounds” (KING FAISAL UNIVERSITY, priority 2023, dated 2024).

Holding throughout (assay type): cell-based
The subject of assay [1] is Chrysosporium keratinophilum. The assay can be described thus: Agar plate disc-diffusion, antifungal inhibition zone. The following applies: Sabouraud's dextrose agar, 37° C., 72 h, DMSO zone subtracted. The method, then: (§1) The agar plate disc-diffusion method was applied. Sterilized filter papers (6 mm in diameter) were wetted with 10 μL of a solution of 6′-(4-methoxyphenyl)-2′-ethoxy-3,4′-bipyridine-3′-carbonitrile (4) or 6′-(4-methoxyphenyl)-2′-methoxy-3,4′-bipyridine-3′-carbonitrile (5) to be tested, containing […] in DMSO, and the discs were allowed to air dry. The discs were then placed onto the surface of agar plates (nutrient agar for bacteria and Sabouraud's dextrose agar for fungi) seeded with the test organism. Each plate contained 15 mL of the agar medium, previously seeded with 0.2 mL of the broth culture of each organism pregrown for 18 hours. The plates were incubated at 37° C. for 48 h, and 72 h for fungi. The inhibition zones were measured in mm. Discs impregnated with DMSO were used as a control, and its inhibition zone was subtracted from the tested compound actual inhibition zone.
(§2) The results of the antimicrobial testing can be observed in Tables 1 and 2, below, using ciprofloxacin as a reference.
(Agar diffusion results depend on both activity and mobility in agar.)

The next assay concerns Aspergillus flavus. The description is as above. To be noted: Sabouraud's dextrose agar, 37° C., 72 h, DMSO zone subtracted. The method, then: as §1, §2
The test system of another assay is different microbes. The assay can be described thus: Antimicrobial activity, overall statement on Tables 1 and 2. The following applies: summary of Tables 1 and 2, bacteria and fungi. The method, then:
as §1
Their antibacterial activity was screened against gram positive bacteria namely Bacillus cereus and Staphylococcus aureus and gram-negative bacterial strains namely Pseudomonas aeruginosa and Escherichia coli, while their antifungal activity was screened against Aspergillus flavus and Chrysosporium keratinophilum.

The subject of a further assay is Escherichia coli. The assay is described as follows: Agar plate disc-diffusion, antibacterial inhibition zone. The following applies: nutrient agar, 37° C., 48 h, DMSO zone subtracted. The method, then: as §1, §2
In the next assay the test system is Staphylococcus aureus. Described as above. The following applies: nutrient agar, 37° C., 48 h, DMSO zone subtracted. The method, then: as §1, §2
The test system of another assay is Bacillus Cereus. The description is as above. The following applies: nutrient agar, 37° C., 48 h, DMSO zone subtracted. The method, then:
as §1, §2

The next assay has as its system Pseudomonas aeruginosa. The assay is described as above. The following applies: nutrient agar, 37° C., 48 h, DMSO zone subtracted. The method, then: as §1, §2
Setting [2] is: A = concentration of comp. = 10,000 μL.
[3] abbreviates: B = concentration of comp. = 30.000 μL.
Where [4] appears, read: C = concentration of comp. = 50,000 μL.

For `CCOc1nc(-c2ccc(OC)cc2)cc(-c2cccnc2)c1C#N` [Compound 4, 6′-(4-methoxyphenyl)-2′-ethoxy-3,4′-bipyridine-3′-carbonitrile], the inhibition zone in assay [1] (setting [2]) was 25 mm; in assay [1] (setting [3]), 28 mm; in assay [1] (setting [4]), 46 mm; in the assay on Aspergillus flavus (setting [2]), 23 mm; in the assay with Aspergillus flavus (setting [3]) it was 27 mm; with Aspergillus flavus (setting [4]) it was 38 mm. The inhibition zone with Escherichia coli (setting [2]) was determined as 26 mm; in the assay with Escherichia coli (setting [3]) it was 36 mm; in the assay on Escherichia coli (setting [4]), 49 mm; in the assay with Staphylococcus aureus (setting [2]) it was 17 mm; with Staphylococcus aureus (setting [3]) it was 21 mm; in the assay on Staphylococcus aureus (setting [4]), 31 mm. Further, the inhibition zone in the assay with Bacillus Cereus (setting [2]) amounted to 19 mm; in the assay on Bacillus Cereus (setting [3]) it was 25 mm; with Bacillus Cereus (setting [4]) it was 32 mm; with Pseudomonas aeruginosa (setting [2]), 25 mm; in the assay on Pseudomonas aeruginosa (setting [3]), 28 mm; in the assay on Pseudomonas aeruginosa (setting [4]), 41 mm. In addition, the “antimicrobial activities (in words)” value in the assay with different microbes is listed as “high antimicrobial activities”.

Turning to `O=C(O)c1cn(C2CC2)c2cc(N3CCNCC3)c(F)cc2c1=O` [Cip., ciprofloxacin, reference compound], the inhibition zone was 29 mm in assay [1] (setting [2]); 30 mm in assay [1] (setting [3]); 53 mm in assay [1] (setting [4]); 29 mm in the assay with Aspergillus flavus (setting [2]); 30 mm in the assay with Aspergillus flavus (setting [3]); 42 mm in the assay with Aspergillus flavus (setting [4]). The inhibition zone in the assay with Escherichia coli (setting [2]) is 30 mm; with Escherichia coli (setting [3]) it was 39 mm; with Escherichia coli (setting [4]), 60 mm; with Staphylococcus aureus (setting [2]), 43 mm; in the assay with Staphylococcus aureus (setting [3]), 44 mm; in the assay on Staphylococcus aureus (setting [4]) it was 53 mm. Besides, the inhibition zone amounted to 29 mm in the assay on Bacillus Cereus (setting [2]); 30 mm with Bacillus Cereus (setting [3]); 42 mm in the assay with Bacillus Cereus (setting [4]); 29 mm in the assay on Pseudomonas aeruginosa (setting [2]); 30 mm in the assay with Pseudomonas aeruginosa (setting [3]); 53 mm with Pseudomonas aeruginosa (setting [4]).

With `COc1ccc(-c2cc(-c3cccnc3)c(C#N)c(OC)n2)cc1` [Compound 5, 6′-(4-methoxyphenyl)-2′-methoxy-3,4′-bipyridine-3′-carbonitrile], the inhibition zone is listed as 27 mm in assay [1] (setting [2]); 28 mm in assay [1] (setting [3]); 49 mm in assay [1] (setting [4]); 24 mm in the assay on Aspergillus flavus (setting [2]); 26 mm with Aspergillus flavus (setting [3]); 39 mm in the assay on Aspergillus flavus (setting [4]). The inhibition zone with Escherichia coli (setting [2]) is 27 mm; with Escherichia coli (setting [3]), 37 mm; in the assay with Escherichia coli (setting [4]), 50 mm; in the assay on Staphylococcus aureus (setting [2]), 19 mm; in the assay on Staphylococcus aureus (setting [3]) it was 27 mm; with Staphylococcus aureus (setting [4]), 32 mm. For the same compound, the inhibition zone is 23 mm in the assay on Bacillus Cereus (setting [2]); 25 mm in the assay with Bacillus Cereus (setting [3]); 37 mm in the assay with Bacillus Cereus (setting [4]); 23 mm in the assay with Pseudomonas aeruginosa (setting [2]); 31 mm in the assay with Pseudomonas aeruginosa (setting [3]); 39 mm in the assay on Pseudomonas aeruginosa (setting [4]). The “antimicrobial activities (in words)” value in the assay with different microbes was “high antimicrobial activities”.
